Source: patent publication US6875884B1, “Urea derivatives as inhibitors for CCR-3 receptor” (Kirin Beer Kabushiki Kaisha, priority 1999, dated 2005)

tested on: collagen-induced arthritis; assay: Type II collagen-induced arthritis in mice, clinical score; assay type: in vivo; details: male DBA/1 mice, 20 mg/kg per day subcutaneously starting at 2nd immunization, versus control vehicle

Row | Structure (SMILES) | clinical score of collagen-induced arthritis
1 | CC[N+](CCCNC(=O)Nc1ccccc1)(CCc1ccc(Cl)cc1)Cc1ccc(Cl)cc1.[I-] (stereo not shown) [Compound 298, [3-(Phenylureido)propyl][2(4-chlorophenyl)ethyl](4 chlorobenzyl)ethylammonium iodide] | marked prevention in clinical score
2 | O=C(O)CCCN(CCCNC(=O)Nc1ccc(Br)cc1)C1CCCc2ccccc21 (stereo not shown) [Compound 60, 4-[[3-(4-Bromophenylureido)propyl](1,2,3,4-tetrahydro-1-naphthyl)amino]butanoic acid] | marked prevention in clinical score

tested on: bronchoconstriction provoked by acetylcholine; assay: Airway hyperreactivity: bronchoconstriction provoked by acetylcholine (murine asthma model); assay type: in vivo; details: OVA-immunized male BALB/c mice, intraperitoneally for 9 days, FIG. 2A
Procedure: (§1) Male BALB/c mice were immunized by an intraperitoneal injection of 10 μg OVA adsorbed to 1 mg aluminum hydroxide gel (alum). A booster injection of the same dose of alum-adsorbed OVA was given 5 days later. Unimmunized control mice received saline.
(§2) Twelve days after primary immunization, both the immunized and unimmunized mice were exposed to aerosolized antigen. Aerosolization of OVA was performed using a nose-only aerosol chamber adapted for mice. Animals were exposed for 10 minutes to 5 mg/ml OVA aerosolized by an ultrasonic nebulizer (NE-U12, Omron, Tokyo, Japan) driven by a vacuum pump. The antigen bronchoprovocation was repeated on day 16 and day 20 under the same conditions. Compound No. 298 (CPD No. 298) was dissolved in saline containing 2% DMSO and 2% Cremophore and administered intraperitoneally for 9 days, starting on the first day of antigen inhalation.
Twenty-four hours after the final aerosol exposure, bronchoconstriction was measured by the overflow method of Konzett and Rōssler. […] Bronchoconstriction was recorded on a flatbed recorder (Model FBR-252A, TOA Electronics Ltd., Tokyo, Japan). […]

Row | Structure (SMILES) | bronchoconstriction provoked by acetylcholine
3 | CC[N+](CCCNC(=O)Nc1ccccc1)(CCc1ccc(Cl)cc1)Cc1ccc(Cl)cc1.[I-] (stereo not shown) [Compound 298, [3-(Phenylureido)propyl][2(4-chlorophenyl)ethyl](4 chlorobenzyl)ethylammonium iodide] | Inhibition of bronchoconstriction

target: T1, CCR-3 (Homo sapiens, UniProt P51677); assay: Inhibition of eotaxin-induced chemotaxis of CCR-3 transfectant cells (CCR3/U937); assay type: cell-based; parameters: expressed in transfected cells; host or cells: U937; details: U-937, compound 10 μM, eotaxin 1×10^−9 M, Table 3a
T1 sequence (P51677 1-355): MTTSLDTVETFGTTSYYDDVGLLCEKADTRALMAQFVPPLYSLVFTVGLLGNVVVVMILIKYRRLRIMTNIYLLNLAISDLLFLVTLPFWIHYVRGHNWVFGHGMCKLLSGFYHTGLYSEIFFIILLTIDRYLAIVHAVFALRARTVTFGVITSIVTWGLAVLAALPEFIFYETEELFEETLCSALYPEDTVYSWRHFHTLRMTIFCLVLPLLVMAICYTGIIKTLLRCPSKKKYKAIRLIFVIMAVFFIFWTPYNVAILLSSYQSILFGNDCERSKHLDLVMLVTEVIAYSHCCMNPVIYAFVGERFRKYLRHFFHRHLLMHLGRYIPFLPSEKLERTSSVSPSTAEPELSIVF
Procedure: The inhibitory activity of the compounds against eotaxin-induced chemotaxis was determined by measuring the inhibition of migration of CCR-3 transfectant cells (CCR3/U937), using a minor modification of the method described by Ohashi, H. et al., Int Arch Allergy Immunol. (1999) 118, 44-50. CCR-3 transfectant cells were grown in PRMI1640 medium containing 10% fetal calf serum (FCS) and Geneticin 418 (0.8 mg/ml). For the assay, CCR-3 transfectant cells were isolated and resuspended at 1×10^7 cells/ml in assay medium (RPMI 1640 medium containing 0.1% bovine serum albumin (BSA)). The chemotaxis assay was performed in a 24-well culture plate. Human eotaxin suspended in assay medium was added to the wells at 1×10^−9 M along with test compounds at various concentrations. For a positive control, eotaxin was added to the wells without a test compound, and for a negative control, neither eotaxin nor a test compound was added to the walls. Chemotaxicell (Kurabo Co., Ltd.) having 5 micrometers pore size were inserted into each well and 100 micro liters of CCR-3 transfectant cells suspension were added to the top chamber. The plates were incubated at 37° C. for 1 hour. After incubation, migrated cells in lower wells were diluted and counted by particle size distribution analyzer (CDP-500, Sysmex Co., Ltd.)

Row | inhibition at 10 µM | Structure (SMILES)
4 | 100% | O=C(O)CCCN(CCCNC(=O)Nc1ccc(Br)cc1)C1CCc2ccccc21 (stereo not shown) [Compound 173, 4-[[3-(4-Bromophenylureido)propyl](1-indanyl)amino]butanoic acid]
5 | 100% | O=C(O)CCCN(CCCNC(=S)Nc1ccc(Br)cc1)[C@@H]1CCc2ccccc21 [Compound 288, 4-[[3(4-Bromophenylthioureido)propyl][(1R)-1-indanyl]amino]butanoic acid]

Second part, the compound before the results:

Row | Structure (SMILES) | inhibition at 10 µM
6 | CC(C)(C)OC(=O)[C@H](CCN(CCCC(=O)O)C1CCCc2ccccc21)NC(=O)Nc1ccc(Br)cc1 (stereo partly drawn) [Compound 165, 4[[(3S)-3-(4-bromophenylureido)-3-(tert-butoxycarbonyl)propyl](1,2,3,4-tetrahydro-1-naphthyl)amino]butanoic acid] | 100%
7 | CCN(CCc1ccc(Cl)cc1)CC(O)CNC(=O)Nc1ccccc1 (stereo not shown) [Compound 163, N-phenylcarbamoyl-N′-[2-(4-chlorophenyl)ethyl]-N′-ethyl 2-hydroxy-1,3-diaminopropane] | 96%
8 | CC(C)NC(=O)[C@H](CCN(CCCC(=O)O)C1CCCc2ccccc21)NC(=O)Nc1ccc(Br)cc1 (stereo partly drawn) [Compound 286, 4-[[(3S)-3-(4-Bromophenylureido)-3-(isopropylcarbamoyl)propyl](1,2,3,4-tetrahydro-1-naphthyl)amino]butanoic acid] | 100%
9 | O=C(O)CCCN(CCCNC(=S)Nc1ccc(Cl)cc1)C1CCCc2ccccc21 (stereo not shown) [Compound 164, 4-[[3-(4-chlorophenylthioureido)propyl](1,2,3,4-tetrahydro-1-naphthyl)amino]butanoic acid] | 100%

same assay, conditions: compound 10 μM, eotaxin 1×10^−9 M, Table 3a

Row | Chemotaxis Assay 10 μM (inhibition %) | Structure (SMILES)
10 | 100% | CCCCOC(=O)c1ccc(NC(=O)NCCCN(CCCC(=O)O)C2CCCc3ccccc32)cc1 (stereo not shown) [Compound 237]
11 | 100% | O=C(O)CCCN(CCCNC(=S)Nc1cccc(Cl)c1)C1CCCc2ccccc21 (stereo not shown) [Compound 248]
12 | 96% | O=C(O)CCCN(CCCNC(=O)Nc1cc(Cl)nc(Cl)c1)C1CCCc2ccccc21 (stereo not shown) [Compound 279]
13 | 100% | COC(=O)CCCN(CCCNC(=S)Nc1ccc(Br)cc1)C1CCCc2ccccc21 (stereo not shown) [Compound 252]
14 | 100% | O=C(O)CCCN(CCCNC(=S)Nc1ccc(F)cc1)C1CCCc2ccccc21 (stereo not shown) [Compound 257]

The remaining lines, values behind:

Row | Structure (SMILES) | Chemotaxis Assay 10 μM (inhibition %)
15 | CC(C)(C)OC(=O)[C@H](CCN(CCCC(=O)O)C1CCCc2ccccc21)NC(=O)Nc1ccc(Br)cc1 (stereo partly drawn) [Compound 166, 4[[(3S)-3-(4-bromophenylureido)-3-(tert-butoxycarbonyl)propyl](1,2,3,4-tetrahydro-1-naphthyl)amino]butanoic acid] | 100%
16 | O=C(NCCCN(CCc1ccc(Cl)cc1)Cc1cccnc1)Nc1ccccc1 [Compound 23] | 82%
17 | O=C(O)CCCN(CCNC(=O)Nc1ccc(Br)cc1)C1CCCc2ccccc21 (stereo not shown) [Compound 81] | 58%
18 | CC(C)NC(=O)[C@H](CCN(CCCC(=O)O)C1CCCc2ccccc21)NC(=O)Nc1ccc(Br)cc1 (stereo partly drawn) [Compound 284, 4-[[(3S)-3-(4-Bromophenylureido)-3-(isopropylcarbamoyl)propyl](1,2,3,4-tetrahydro-1-naphthy1)amino]butanoic acid] | 95%
19 | CN(CCCNC(=O)Nc1ccccc1)CCc1ccc(Cl)cc1 [Compound 27] | 97%
20 | CCN(CCNC(=O)Nc1ccc([N+](=O)[O-])cc1)CCc1ccc(Cl)cc1 [Compound 4] | 59%

same assay, conditions: compound 10 μM, eotaxin 1×10^−9 M, Table 3c

Row | Chemotaxis Assay 10 μM (inhibition %) | Structure (SMILES)
21 | 100% | CC[N+](CC)(CCCNC(=S)Nc1ccccc1)CCc1ccc(Cl)cc1.[I-] [Compound 336]

tested on: eosinophil infiltration to BALF; assay: Eosinophil infiltration to bronchoalveolar lavage fluid (BALF) in OVA-immunized mice; assay type: in vivo; details: OVA-immunized male BALB/c mice, intraperitoneally for 9 days, FIG. 2C
Procedure: as §1, §2
Immediately after the measurement of airway reactivity to acethycholine, BALF was collected by lavaging whole-lung three times with 0.7-ml aliquots of physiological saline containing 0.1% BSA via the tracheal cannula while gently massaging the thorax. The BALF recovered from one mouse was pooled, centrifuged, and the cells were resuspended in 100 μl saline containing 0.1% BSA. Cell numbers were determined using a hemocytometer and 2×10^4 cells were cytecetrifuged onto a glass slide. […]

Row | Structure (SMILES) | eosinophil infiltration to bronchoalveolar lavage fluid (BALF)
22 | CC[N+](CCCNC(=O)Nc1ccccc1)(CCc1ccc(Cl)cc1)Cc1ccc(Cl)cc1.[I-] (stereo not shown) [Compound 298, [3-(Phenylureido)propyl][2(4-chlorophenyl)ethyl](4 chlorobenzyl)ethylammonium iodide] | significantly suppressed eosinophil infiltration

target: T1, CCR-3; assay: Inhibition of eotaxin-induced intracellular calcium mobilization in CCR-3 transfectant cells (CCR3/HEK293); assay type: cell-based; parameters: expressed in transfected cells; details: compound 6.25 μg/ml, eotaxin 10 nM
Procedure: Compounds 93-162 used in this assay were synthesized by using the method described in Example 6, and Compounds 168-170 were synthesized by using the method described in Example 6 except for the use of isothiocyanates instead of isocyanates in step 6.
CCR-3 transfectant cells (CCR3/HEK293) were isolated and resuspended with assay buffer (20 mM HEPES, 125 mM NaCl, 5 mM KCl, 0.5 mM glucose, 1 mM CaCl2, 1 mM MgCl2, 0.1% BSA). After washing CCR3/HEK293 cells with assay buffer, cells were loaded with Fura-2/AM in assay buffer for 1 hour at room temperature. Cells were washed and resuspended with assay buffer at 5×10^6 cells/ml in assay buffer, and placed in a tissue culture plate (Falcon, no. 3296). Test compounds dissolved in DMSO were added to the wells, followed by eotaxin (10 nM at final concentration). Cells were excited at 340 nm and 380 nm in a fluorimeter (ARGUS50,FDSS2000, Hamamatsu Photonics) and the relative ratio of the fluorescence emitted at 510 nm was recorded. For a control, DMSO without a test compound was added. Intracellular calcium mobilization was calculated as described in Krogel C. et al., FEBS Let. (1989) 243, 41-46.

Row | Ca^2+ mobilization 6.25 μg/ml (inhibition %) | Structure (SMILES)
23 | 23% | COc1ccc(NC(=S)NCCCN(CCCC(=O)O)C2CCCc3ccccc32)cc1 (stereo not shown) [Compound 168]
24 | 45% | O=C(O)CCCN(CCCNC(=S)Nc1ccc(OC(F)(F)F)cc1)C1CCCc2ccccc21 (stereo not shown) [Compound 170]
25 | 48% | O=C(O)CCCN(CCCNC(=S)Nc1ccc(OCc2ccccc2)cc1)C1CCCc2ccccc21 (stereo not shown) [Compound 169]
